Here are results for four compounds from patent publication US9879028B2, “Compounds that modulate EGFR activity and methods for treating or preventing conditions therewith” (Gatekeeper Pharmaceuticals, Inc., priority 2009, dated 2018).

Test [1] relates to EGFR Del 19/T790M Ba/F3 cells. The test can be described thus: MTS cell proliferation and growth assay in EGFR mutant Ba/F3 cells (Del 19/T790M). Format: cell-based. As to conditions: Mus musculus, BaF3, 72 hours. From the text:
(§1) The EGFR and iERBB2 mutant Ba/F3 cells and the NIH-3T3 cells have been previously characterized (Engelman, J. A. et al. Cancer Res 67, 11924-32 (2007); Yuza, Y. et al. Cancer Biol Ther 6 (2007)). The EGFR C797S and the ERBB2 T798I mutations are introduced using site directed mutagenesis using the Quick Change Site-Directed Mutagenesis kit (Stratagene; La Jolla, Calif.) according to the manufacturer's instructions (Mukohara, T. et al. J Natl Cancer Inst 97, 1185-94 (2005)). The oligonucleotide sequences are available upon request. All constructs are confirmed by DNA sequencing. The constructs are shuttled into the retroviral vector JP1540 using the BD Creator™ System (BD Biosciences). Ba/F3 of NIH-3T3 cells are infected with retrovirus according to standard protocols, as described previously (Engelman, J. A. et al. Proc Natl Acad Sci USA 102, 3788-93 (2005); Zhao, J. J. et al. Cancer Cell 3, 483-95 (2003)). Stable populations are obtained by selection in puromycin (2 μg/ml).
(§2) Growth and inhibition of growth is assessed by MTS assay. […]
(§3) Activity of various compounds of the invention was determined in vitro in EGFR mutant Ba/F3 cells according to the procedures set forth in Example 1.

The test system of test [2] is EGFR L858R/T790M Ba/F3 cells. In words: MTS cell proliferation and growth assay in EGFR mutant Ba/F3 cells (L858R/T790M). Format: cell-based. To be noted: Mus musculus, BaF3, 72 hours.
Description: as §1, §2, §3

The test system of another test is lung cancer. As to conditions: lung cancer patients; cited from earlier work.

As to `C=CC(=O)Nc1cccc(Oc2nc(Nc3ccc(N4CCN(C)CC4)cc3OC)nc3ccccc23)c1` [IV-1, N-(3-((2-((2-methoxy-4-(4-methylpiperazin-1-yl)phenyl)amino)quinazolin-4-yl)oxy)phenyl)acrylamide], the IC50 in test [1] turned out to be 435 nM; in test [2] it was 688 nM. The like results for `C=CC(=O)Nc1cccc(-c2csc3cnc(Nc4ccc(N5CCN(C)CC5)cc4OC)nc23)c1` [VIII-1, N-(3-(2-((2-methoxy-4-(4-methylpiperazin-1-yl)phenyl)amino)thieno[3,2-d]pyrimidin-7-yl)phenyl)acrylamide] were, in that order, 864 nM and 2160 nM.

With `C#Cc1cccc(Nc2ncnc3cc(OCCOC)c(OCCOC)cc23)c1` [erlotinib], the “median time to tumor progression” value with lung cancer is “approximately 2 months”. With `COc1cc2ncnc(Nc3ccc(F)c(Cl)c3)c2cc1OCCCN1CCOCC1` [gefitinib], the “median time to tumor progression” value with lung cancer is listed as “approximately 2 months”.

The term IC50 denotes the concentration that inhibits the measured activity by half.
